Measurements reported in ChEMBL document CHEMBL1201862, “PubChem BioAssay data set” (2004).
Active and inactive are the calls of the source.

Columns and labels:
[1] = biological target: T1, Neuropeptide Y receptor type 2 (Homo sapiens, UniProt P49146); assay type: functional, cell-based;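 note: HEK293 cells expressing the receptor and a CNG channel; stimulus was NPY near EC95 followed by isoproterenol to raise cAMP; antagonist potency measured as restoring cAMP signal that NPY suppresses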
T1 sequence (P49146 whole entry): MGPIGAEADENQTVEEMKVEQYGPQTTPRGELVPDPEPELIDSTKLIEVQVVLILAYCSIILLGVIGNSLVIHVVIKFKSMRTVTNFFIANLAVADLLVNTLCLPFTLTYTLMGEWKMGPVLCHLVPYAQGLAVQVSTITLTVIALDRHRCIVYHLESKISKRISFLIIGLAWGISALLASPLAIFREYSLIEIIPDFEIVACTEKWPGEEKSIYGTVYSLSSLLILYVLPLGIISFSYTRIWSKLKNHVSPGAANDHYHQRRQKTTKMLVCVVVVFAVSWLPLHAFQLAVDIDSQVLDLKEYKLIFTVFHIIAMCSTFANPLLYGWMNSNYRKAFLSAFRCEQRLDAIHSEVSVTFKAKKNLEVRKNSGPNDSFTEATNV

[2] = biological target: T2, Neuropeptide Y receptor type 1 (Homo sapiens, UniProt P25929); assay type: functional;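 note: HEK293 cells with a CNG channel challenged with NPY then isoproterenol; potency as antagonist that reverses NPY suppression of cAMP signal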
T2 sequence (P25929 whole entry): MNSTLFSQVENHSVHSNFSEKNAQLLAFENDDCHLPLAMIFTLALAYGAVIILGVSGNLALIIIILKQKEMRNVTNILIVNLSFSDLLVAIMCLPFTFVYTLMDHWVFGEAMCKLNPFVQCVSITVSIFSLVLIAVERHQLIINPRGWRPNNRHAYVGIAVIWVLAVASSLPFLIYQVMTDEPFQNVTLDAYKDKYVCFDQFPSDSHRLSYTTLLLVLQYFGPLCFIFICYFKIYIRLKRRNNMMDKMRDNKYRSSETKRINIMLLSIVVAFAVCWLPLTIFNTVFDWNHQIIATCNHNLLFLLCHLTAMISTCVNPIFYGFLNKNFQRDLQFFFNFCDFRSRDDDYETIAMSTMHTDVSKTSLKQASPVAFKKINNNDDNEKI

[3] = biological target: Cyclin-dependent kinase 5/CDK5 activator 1 (Homo sapiens, UniProt Q00535); test: blockade of human CDK5 activity – biochemical, cherry-picked samples, set 2, dose response (AID 504545)
[4] = OVCAR-3 cell viability loss – plate reader, dry powder samples, PAX8 inhibitor project, dose response (AID 743044); assay type: functional, cell-based
[5] = OVCAR8 cell viability loss – plate reader, dry powder samples, PAX8 project, dose response (AID 743197); assay type: functional, cell-based; details: OVCAR-8
Paired box protein Pax-8 = Paired box protein Pax-8 (Homo sapiens, UniProt Q06710); test: PAX8 transcriptional activity inhibition in RMG-I – RMG-I cells, luciferase, cherry-pick, dose response (AID 687027); assay type: functional, cell-based;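 note: luciferase reporter driven by Pax8 target thyroperoxidase promoter measured by SteadyGlo luminescence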
[6] = biological target: Peroxisome proliferator-activated receptor gamma/Nuclear receptor corepressor 2 (Homo sapiens, UniProt P37231+Q9Y618); test: Counterscreen for NR2E3 inverse agonists: TR-FRET-based biochemical high throughput dose response assay to identify inverse agonists of the interaction between peroxisome proliferator-activated receptor gamma (PPARg) and nuclear receptor co-repressor 2 (NCOR2).; assay type: functional
[7] = biological target: Photoreceptor-specific nuclear receptor (Homo sapiens, UniProt Q9Y5X4); test: ligands suppressing NR2E3 nuclear receptor activity – biochemical, TR-FRET, dose response (AID 463256); assay type: functional
[8] = biological target: SWI/SNF-related matrix-associated actin-dependent regulator of chromatin subfamily A member 2 (Homo sapiens, UniProt P51531); test: Luminescence-based cell-based high throughput dose response assay to identify activators of the function of SWI/SNF related, matrix associated, actin dependent regulator of chromatin, subfamily a, member 2 (SMARCA2, BRM).; assay type: functional
[9] = biological target: T3, Replicative DNA helicase DnaB (Mycobacterium tuberculosis, UniProt P9WMR3); test: DnaB intein splicing inhibitors, dose response, biochemical, cell-free fluorescence (AID 449749); assay type: functional
T3 sequence (P9WMR3 whole entry): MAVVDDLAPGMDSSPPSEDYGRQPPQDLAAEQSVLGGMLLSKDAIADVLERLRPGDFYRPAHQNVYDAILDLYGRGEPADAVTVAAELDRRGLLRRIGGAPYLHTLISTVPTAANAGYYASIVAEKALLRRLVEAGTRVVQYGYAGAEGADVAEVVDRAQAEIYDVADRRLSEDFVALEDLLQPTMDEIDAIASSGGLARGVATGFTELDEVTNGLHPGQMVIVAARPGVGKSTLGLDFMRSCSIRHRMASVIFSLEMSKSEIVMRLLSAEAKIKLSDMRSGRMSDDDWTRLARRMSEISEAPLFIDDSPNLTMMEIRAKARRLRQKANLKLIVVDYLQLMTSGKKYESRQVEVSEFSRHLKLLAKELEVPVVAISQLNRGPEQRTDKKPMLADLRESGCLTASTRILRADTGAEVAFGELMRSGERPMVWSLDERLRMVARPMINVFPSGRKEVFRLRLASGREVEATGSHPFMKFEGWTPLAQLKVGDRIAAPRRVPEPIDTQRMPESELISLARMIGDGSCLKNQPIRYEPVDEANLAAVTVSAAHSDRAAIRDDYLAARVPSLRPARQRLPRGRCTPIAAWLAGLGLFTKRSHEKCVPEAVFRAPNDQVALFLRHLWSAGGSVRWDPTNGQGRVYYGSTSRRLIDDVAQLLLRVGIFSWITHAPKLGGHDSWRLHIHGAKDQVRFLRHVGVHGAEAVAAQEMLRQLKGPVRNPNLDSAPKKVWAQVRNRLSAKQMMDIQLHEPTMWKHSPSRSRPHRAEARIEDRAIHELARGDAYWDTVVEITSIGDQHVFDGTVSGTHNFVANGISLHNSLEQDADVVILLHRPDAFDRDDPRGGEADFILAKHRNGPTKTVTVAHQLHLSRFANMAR

Protein RecA = biological target: T4, Protein RecA (Mycobacterium tuberculosis, UniProt P9WHJ3); test: Fluorescence Cell-Free Homogeneous Dose Retest to Identify Inhibitors of RecA-Intein Splicing Activity. [Related pubchem assays (depositor defined):AID2097, AID2223, AID489010, AID492950]; assay type: functional
T4 sequence (P9WHJ3 whole entry): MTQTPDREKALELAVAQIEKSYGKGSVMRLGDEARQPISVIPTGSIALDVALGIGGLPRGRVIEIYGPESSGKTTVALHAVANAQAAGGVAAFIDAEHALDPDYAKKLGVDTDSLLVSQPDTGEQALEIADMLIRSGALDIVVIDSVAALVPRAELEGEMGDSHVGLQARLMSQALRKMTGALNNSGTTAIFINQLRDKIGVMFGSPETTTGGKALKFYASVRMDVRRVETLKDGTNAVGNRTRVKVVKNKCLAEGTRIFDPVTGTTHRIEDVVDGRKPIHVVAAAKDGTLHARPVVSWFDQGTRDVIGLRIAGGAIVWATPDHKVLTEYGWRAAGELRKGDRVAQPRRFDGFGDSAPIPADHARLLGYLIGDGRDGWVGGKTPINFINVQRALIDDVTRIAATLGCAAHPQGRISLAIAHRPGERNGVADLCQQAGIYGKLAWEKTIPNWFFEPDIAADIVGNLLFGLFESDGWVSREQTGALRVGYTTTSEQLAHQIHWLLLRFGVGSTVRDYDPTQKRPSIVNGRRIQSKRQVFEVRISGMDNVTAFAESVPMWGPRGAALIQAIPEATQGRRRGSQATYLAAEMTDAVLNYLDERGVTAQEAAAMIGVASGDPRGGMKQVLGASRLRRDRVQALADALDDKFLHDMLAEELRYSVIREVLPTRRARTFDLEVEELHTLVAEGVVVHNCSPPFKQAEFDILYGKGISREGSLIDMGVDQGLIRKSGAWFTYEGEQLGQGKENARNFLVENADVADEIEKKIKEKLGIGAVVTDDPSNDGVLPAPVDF

[10] = Counterscreen for activators of the function of SWI/SNF related, matrix associated, actin dependent regulator of chromatin, subfamily a, member 2 (SMARCA2, BRM): Luminescence-based cell-based high throughput dose response assay to identify non-selective compounds using the VP16 reporter assay.; assay type: functional
Mu-type opioid receptor = Mu-type opioid receptor (Homo sapiens, UniProt P35372); assay type: functional, cell-based;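 note: U2OS cells with beta-arrestin recruitment to OPRM1 by beta-gal complementation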
[11] = biological target: 5-hydroxytryptamine receptor 2A (Mus musculus, UniProt P35363); assay type: functional, cell-based;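 note: CHO-K1 cells with tagged receptor and beta-arrestin; agonist potency measured as compound-induced activation of the receptor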
[12] = Dd2 malaria parasite growth inhibition potency – SYBR Green, dry powder samples, dose response (AID 1159566); assay type: functional, cell-based;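 note: potency for growth inhibition with lower SYBR green DNA signal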
[13] = P. falciparum Dd2 growth inhibitors, dose response, SYBR Green, cherry-picked samples (AID 1159567); assay type: functional, cell-based
[14] = growth inhibition of PfATP4-mutant resistant parasites – NITD609-resistant line, SYBR Green, dry powder, dose response (AID 1159571); assay type: functional, cell-based;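 note: parasites synchronized at ring stage by sorbitol before testing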
[15] = toxicity to human HepG2 hepatoma cells – cell-based, plate reader, dry powder samples, cytotoxicity control, dose response (AID 1159569); assay type: functional;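 note: inhibitor potency with signal falling toward the positive control level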
[16] = growth inhibition of yeast DHODH-expressing 3D7 parasites – SYBR Green, dry powder samples, dose response (AID 1159570); assay type: functional, cell-based;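 note: parasite growth measured after 72 hours of compound exposure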
[17] = Luminescence Cell-Based Dose Response HTS to Identify Inhibitors of 5'UTR Stem-Loop Driven Prion Protein mRNA Translation in H4 Neuroglioblastoma Cells. [Related pubchem assays: 1827 (Project Summary), 1813 (Primary HTS)]; assay type: functional
[18] = alpha-synuclein stem-loop luciferase translation blockers – H4 neuroglioma cells, luminescence, confirmation (AID 1988); assay type: functional, cell-based
[19] = luciferase reporter signal suppression in cells – H4 neuroglioma cells, luminescence, dose response (AID 1990); assay type: functional, cell-based

Chain of SWI/SNF-related matrix-associated actin-dependent regulator of chromatin subfamily A member 2 (P51531 whole entry): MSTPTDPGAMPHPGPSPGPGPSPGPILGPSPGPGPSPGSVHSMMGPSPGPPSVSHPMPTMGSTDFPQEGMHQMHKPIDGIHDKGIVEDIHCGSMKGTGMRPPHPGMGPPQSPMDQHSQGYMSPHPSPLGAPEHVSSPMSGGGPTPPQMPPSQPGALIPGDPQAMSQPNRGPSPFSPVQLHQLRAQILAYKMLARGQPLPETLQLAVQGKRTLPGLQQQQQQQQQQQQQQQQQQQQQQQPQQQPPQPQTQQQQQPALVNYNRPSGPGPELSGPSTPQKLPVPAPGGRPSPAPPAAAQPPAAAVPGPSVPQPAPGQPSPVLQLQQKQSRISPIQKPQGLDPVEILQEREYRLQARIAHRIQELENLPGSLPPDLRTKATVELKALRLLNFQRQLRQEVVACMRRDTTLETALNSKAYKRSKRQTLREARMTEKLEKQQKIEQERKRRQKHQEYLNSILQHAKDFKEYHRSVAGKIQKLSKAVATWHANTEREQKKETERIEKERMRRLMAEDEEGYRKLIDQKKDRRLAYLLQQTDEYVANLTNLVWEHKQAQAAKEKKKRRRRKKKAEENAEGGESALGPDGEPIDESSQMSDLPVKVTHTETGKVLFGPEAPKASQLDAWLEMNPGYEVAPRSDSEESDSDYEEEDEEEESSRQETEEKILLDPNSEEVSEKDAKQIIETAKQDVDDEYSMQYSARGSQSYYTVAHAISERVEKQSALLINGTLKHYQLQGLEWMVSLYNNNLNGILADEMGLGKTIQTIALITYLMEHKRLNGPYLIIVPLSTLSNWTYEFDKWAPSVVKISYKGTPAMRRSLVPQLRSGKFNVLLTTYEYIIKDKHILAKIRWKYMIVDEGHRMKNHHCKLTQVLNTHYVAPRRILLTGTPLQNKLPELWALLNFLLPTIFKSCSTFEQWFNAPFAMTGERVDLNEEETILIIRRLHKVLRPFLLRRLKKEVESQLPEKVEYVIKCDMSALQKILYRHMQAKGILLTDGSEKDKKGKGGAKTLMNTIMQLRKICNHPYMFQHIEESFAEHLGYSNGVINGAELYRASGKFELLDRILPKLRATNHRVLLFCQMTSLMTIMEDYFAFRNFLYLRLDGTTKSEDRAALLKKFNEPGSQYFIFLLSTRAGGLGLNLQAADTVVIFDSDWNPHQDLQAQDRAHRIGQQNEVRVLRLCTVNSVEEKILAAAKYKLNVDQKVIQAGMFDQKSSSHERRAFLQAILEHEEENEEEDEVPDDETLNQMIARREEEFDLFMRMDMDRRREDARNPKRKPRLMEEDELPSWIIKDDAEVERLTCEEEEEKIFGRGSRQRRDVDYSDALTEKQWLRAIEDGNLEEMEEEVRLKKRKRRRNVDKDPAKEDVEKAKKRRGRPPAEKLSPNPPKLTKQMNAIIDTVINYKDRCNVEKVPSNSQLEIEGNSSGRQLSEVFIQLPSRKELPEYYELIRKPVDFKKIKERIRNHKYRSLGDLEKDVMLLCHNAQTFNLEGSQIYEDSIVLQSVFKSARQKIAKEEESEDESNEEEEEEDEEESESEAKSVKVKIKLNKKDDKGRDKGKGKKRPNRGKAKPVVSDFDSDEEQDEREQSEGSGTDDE
Chain of Photoreceptor-specific nuclear receptor (Q9Y5X4 whole entry): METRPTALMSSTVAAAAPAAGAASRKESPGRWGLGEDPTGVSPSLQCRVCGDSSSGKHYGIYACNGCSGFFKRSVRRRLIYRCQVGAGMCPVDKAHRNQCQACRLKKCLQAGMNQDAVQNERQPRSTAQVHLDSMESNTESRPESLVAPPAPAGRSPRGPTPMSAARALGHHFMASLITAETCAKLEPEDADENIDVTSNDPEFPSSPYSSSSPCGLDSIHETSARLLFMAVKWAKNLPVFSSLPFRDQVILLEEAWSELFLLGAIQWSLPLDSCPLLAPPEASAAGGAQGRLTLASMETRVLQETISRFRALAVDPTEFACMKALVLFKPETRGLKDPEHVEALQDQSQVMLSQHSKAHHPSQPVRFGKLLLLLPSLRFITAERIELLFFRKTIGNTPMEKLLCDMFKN
Chain of Peroxisome proliferator-activated receptor gamma/Nuclear receptor corepressor 2 (P37231 whole entry): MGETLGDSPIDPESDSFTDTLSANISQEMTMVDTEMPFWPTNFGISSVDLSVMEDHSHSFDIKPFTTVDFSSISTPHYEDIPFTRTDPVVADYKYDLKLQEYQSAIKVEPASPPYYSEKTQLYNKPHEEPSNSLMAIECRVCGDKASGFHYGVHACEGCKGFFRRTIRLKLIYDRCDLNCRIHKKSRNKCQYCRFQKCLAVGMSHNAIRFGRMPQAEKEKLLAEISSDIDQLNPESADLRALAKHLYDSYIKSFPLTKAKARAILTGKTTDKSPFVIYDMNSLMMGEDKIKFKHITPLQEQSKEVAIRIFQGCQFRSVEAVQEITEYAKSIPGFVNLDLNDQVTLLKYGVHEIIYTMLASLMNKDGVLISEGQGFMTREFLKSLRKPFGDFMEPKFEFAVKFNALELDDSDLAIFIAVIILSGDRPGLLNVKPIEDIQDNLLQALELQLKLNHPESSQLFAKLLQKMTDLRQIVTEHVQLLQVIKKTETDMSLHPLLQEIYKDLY
Chain of Peroxisome proliferator-activated receptor gamma/Nuclear receptor corepressor 2 (Q9Y618 whole entry): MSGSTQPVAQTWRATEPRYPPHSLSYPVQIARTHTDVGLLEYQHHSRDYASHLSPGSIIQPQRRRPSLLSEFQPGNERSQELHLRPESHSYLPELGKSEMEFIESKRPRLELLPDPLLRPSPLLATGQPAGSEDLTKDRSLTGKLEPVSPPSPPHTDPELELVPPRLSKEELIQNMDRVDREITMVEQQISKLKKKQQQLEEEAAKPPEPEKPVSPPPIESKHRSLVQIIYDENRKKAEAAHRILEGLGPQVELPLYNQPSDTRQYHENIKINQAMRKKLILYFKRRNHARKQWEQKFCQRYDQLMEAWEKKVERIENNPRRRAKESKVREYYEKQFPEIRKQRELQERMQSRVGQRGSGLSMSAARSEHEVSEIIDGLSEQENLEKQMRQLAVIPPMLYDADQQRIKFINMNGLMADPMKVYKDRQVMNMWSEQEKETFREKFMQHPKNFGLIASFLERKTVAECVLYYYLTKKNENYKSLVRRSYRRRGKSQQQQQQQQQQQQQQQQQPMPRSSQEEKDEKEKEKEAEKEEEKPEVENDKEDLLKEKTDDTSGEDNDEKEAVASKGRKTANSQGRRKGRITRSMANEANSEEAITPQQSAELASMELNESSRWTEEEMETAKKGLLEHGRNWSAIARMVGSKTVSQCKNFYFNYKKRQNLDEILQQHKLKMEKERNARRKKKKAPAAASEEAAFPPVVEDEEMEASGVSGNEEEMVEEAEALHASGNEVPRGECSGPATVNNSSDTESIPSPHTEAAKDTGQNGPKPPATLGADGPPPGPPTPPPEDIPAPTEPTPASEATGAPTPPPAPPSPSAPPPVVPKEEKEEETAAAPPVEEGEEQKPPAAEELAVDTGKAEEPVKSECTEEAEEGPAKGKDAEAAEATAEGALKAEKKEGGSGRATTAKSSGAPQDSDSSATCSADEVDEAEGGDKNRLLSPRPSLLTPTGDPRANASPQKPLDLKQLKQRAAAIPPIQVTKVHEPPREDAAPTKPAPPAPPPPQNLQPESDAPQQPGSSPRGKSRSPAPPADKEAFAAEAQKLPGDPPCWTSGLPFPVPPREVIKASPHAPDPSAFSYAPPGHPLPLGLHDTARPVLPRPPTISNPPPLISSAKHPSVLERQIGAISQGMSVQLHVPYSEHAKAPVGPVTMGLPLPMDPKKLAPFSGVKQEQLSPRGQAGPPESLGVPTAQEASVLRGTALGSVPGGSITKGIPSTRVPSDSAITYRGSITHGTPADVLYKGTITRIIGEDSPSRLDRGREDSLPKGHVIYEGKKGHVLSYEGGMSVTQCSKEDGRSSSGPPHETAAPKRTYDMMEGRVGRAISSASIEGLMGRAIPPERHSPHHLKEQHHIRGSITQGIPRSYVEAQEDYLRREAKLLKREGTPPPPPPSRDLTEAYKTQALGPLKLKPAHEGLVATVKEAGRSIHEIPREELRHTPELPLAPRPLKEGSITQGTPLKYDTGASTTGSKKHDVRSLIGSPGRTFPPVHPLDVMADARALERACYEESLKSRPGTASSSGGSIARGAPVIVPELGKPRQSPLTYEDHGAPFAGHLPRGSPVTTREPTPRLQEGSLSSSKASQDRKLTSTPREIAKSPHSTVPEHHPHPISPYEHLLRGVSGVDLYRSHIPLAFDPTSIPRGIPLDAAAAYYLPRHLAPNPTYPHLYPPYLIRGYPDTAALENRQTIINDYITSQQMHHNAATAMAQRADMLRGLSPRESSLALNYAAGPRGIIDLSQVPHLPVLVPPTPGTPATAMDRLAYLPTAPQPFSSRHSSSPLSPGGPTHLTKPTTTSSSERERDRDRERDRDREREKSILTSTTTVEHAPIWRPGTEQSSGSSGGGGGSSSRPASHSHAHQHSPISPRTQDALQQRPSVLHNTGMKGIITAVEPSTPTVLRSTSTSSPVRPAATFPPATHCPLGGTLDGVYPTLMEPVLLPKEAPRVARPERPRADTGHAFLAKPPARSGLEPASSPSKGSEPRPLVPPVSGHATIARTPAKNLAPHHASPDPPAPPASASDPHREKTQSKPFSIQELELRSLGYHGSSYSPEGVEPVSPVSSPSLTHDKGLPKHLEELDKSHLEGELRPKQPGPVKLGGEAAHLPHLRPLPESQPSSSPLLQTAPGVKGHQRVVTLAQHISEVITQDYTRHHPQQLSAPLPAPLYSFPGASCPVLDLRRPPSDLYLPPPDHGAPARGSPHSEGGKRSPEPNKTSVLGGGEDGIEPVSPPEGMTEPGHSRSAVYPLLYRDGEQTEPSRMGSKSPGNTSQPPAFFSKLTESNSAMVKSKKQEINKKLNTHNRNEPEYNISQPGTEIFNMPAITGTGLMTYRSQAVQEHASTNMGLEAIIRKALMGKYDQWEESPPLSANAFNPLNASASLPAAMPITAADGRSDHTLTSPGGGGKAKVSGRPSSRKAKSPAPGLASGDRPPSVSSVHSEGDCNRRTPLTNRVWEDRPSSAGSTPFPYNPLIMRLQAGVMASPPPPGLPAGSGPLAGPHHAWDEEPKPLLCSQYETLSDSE

SMILES: CC(C)OC(=O)/C(=C/c1ccc2c(c1)c1ccccc1n2C)NC(=O)c1ccccc1
- IC50 [1]: 14.7 µM (not active)
- IC50 [2]: 19.1 µM (not active)

SMILES: CN1CCN(C(=O)c2ccc3c(c2)NC(=O)/C(=C/c2ccccc2)S3)CC1
- AC50 [3]: 29.7 µM (active)

SMILES: C[C@@H]1CCCCO[C@H](CN(C)Cc2ccc(C(F)(F)F)cc2)[C@H](C)CN([C@@H](C)CO)C(=O)c2cc(NS(=O)(=O)c3ccc(Cl)cc3)ccc2O1
- AC50 [4]: 16.4 µM (active)
- AC50 [5]: > 70 µM (inactive)
- AC50 (Paired box protein Pax-8): 5.9 µM (active)

SMILES: O=C(CCc1nc(-c2ccccc2)c(-c2ccccc2)o1)OCc1ccc(Br)cc1
- IC50 [1]: 15.1 µM (not active)
- IC50 [2]: 8.36 µM (active)

SMILES: Cc1ccc(S(=O)(=O)N(C)C[C@H]2OCCCC[C@H](C)Oc3ccc(NS(=O)(=O)c4ccc(Cl)cc4)cc3C(=O)N([C@@H](C)CO)C[C@@H]2C)cc1
- AC50 [5]: > 70 µM (inactive)
- AC50 (Paired box protein Pax-8): 6.7 µM (active)

SMILES: CCn1cnc2sc(C(=O)Nc3ccccc3OC)c(C)c2c1=O
- IC50 [6]: 4.9 µM (active)
- IC50 [7]: 7.11 µM (active)

SMILES: Cc1nn(-c2ncccn2)c2c1C(=O)CC(C)(C)C2Br (configuration not stated)
- AC50 [3]: 69.7 µM (active)

SMILES: Cc1ccccc1-c1ccc2c(c1)O[C@H](CN(C)C(=O)Nc1ccc(C(F)(F)F)cc1)[C@@H](C)CN([C@H](C)CO)S2(=O)=O
- AC50 [4]: 41.1 µM (active)
- AC50 [5]: > 70 µM (inactive)
- AC50 (Paired box protein Pax-8): 8 µM (active)

SMILES: COc1ccc(-c2cc(C#N)nc(Cl)n2)cc1
- EC50 [8]: > 91.2 µM (inactive)
- AC50 [9]: 79.8 µM (active)
- EC50 (Protein RecA): 37.2 µM (active)
- EC50 [10]: > 91.2 µM (inactive)

SMILES: O=S(=O)(c1ccc(OCC(O)CN2CCN(c3ccccc3Cl)CC2)cc1)N1CCOCC1 (configuration not stated)
- EC50 (Mu-type opioid receptor): 92.5 µM (inactive)
- EC50 [11]: 25.4 µM (inactive)

SMILES: COc1cccc(NC(=O)N2[C@@H](CO)[C@@H](c3ccccc3)[C@@H]2CNCC(C)C)c1
- AC50 [12]: 1.05 µM (active)
- AC50 [13]: 1.78 µM (active)
- AC50 [14]: 1.4 µM (active)
- AC50 [15]: 67.9 µM (active)
- AC50 [16]: 1.08 µM (active)

SMILES: COc1ccc(S(=O)(=O)N(C)C[C@H]2Oc3c(NC(=O)Nc4cccc5ccccc45)cccc3C(=O)N([C@@H](C)CO)C[C@H]2C)cc1
- AC50 [12]: 0.327 µM (active)
- AC50 [13]: 0.489 µM (active)
- AC50 [14]: 0.277 µM (active)
- AC50 [15]: > 100 µM (inactive)
- AC50 [16]: 0.3 µM (active)

SMILES: O=C(Nc1cccc(-n2cnnn2)c1)c1cc2ccccc2o1
- IC50 [6]: 5.91 µM (active)
- IC50 [7]: 6.55 µM (active)

SMILES: Cc1ccsc1C(=O)OCC(=O)NCCC1=CCCCC1
- EC50 [8]: > 91.1 µM (inactive)
- EC50 [10]: > 91.1 µM (inactive)

SMILES: O=C(CCN1CCN(c2ccccc2)CC1)N/N=C/c1ccccc1OC(F)F
- EC50 (Mu-type opioid receptor): 92.5 µM (inactive)
- EC50 [11]: 25.4 µM (inactive)

SMILES: Nc1nc(CN2CCN(Cc3ccccc3)CC2)nc(Nc2ccc3c(c2)OCCO3)n1
- EC50 [8]: > 91.2 µM (inactive)
- EC50 [10]: > 91.2 µM (inactive)

SMILES: Cc1ccc2nc(-c3cc(-c4ccccc4)no3)cn2c1
- EC50 [17]: 3.61 µM (active)
- IC50 [6]: > 39.8 µM (not active)
- EC50 [18]: 3.08 µM (active)
- EC50 [19]: 7.48 µM (inconclusive)
- IC50 [7]: > 39.8 µM (not active)

SMILES: COc1ccc2c3c([nH]c2c1)[C@@H](CO)N(Cc1cccc(F)c1)CC31CCN(Cc2ccccn2)CC1
- AC50 [12]: 1.52 µM (active)
- AC50 [13]: 1.21 µM (active)
- AC50 [14]: 1.1 µM (active)
- AC50 [15]: 48.6 µM (active)
- AC50 [16]: 1.32 µM (active)

SMILES: Cc1cccc(-n2ccnc2SCC(=O)N2CCCc3ccccc32)c1C
- IC50 [1]: 1.56 µM (active)
- IC50 [2]: 4.08 µM (active)
